We go through five compounds from patent US12043645B2, “Adenosine analogs as methyltransferase inhibitors for treating cancer” (MEMORIAL SLOAN KETTERING CANCER CENTER, priority 2017, dated 2024).

Where only a bound is given, the exact number is not on record here.

Holding throughout (format): cell-based
The subject of test [1] is MCF-7 cells (BAF155 and PABP1 biomarkers). In words: EC50 assay: western blot of BAF155 and PABP1 biomarkers in MCF-7 cells. As to conditions: Homo sapiens, MCF7, 48 h, two days treatment. As for the experimental part:
(§1) 1˜2×10e^5 MCF-7 cells or MDA-MB-231 cells per were seeded into 6-well plate. Two days later, cells were treated with inhibitors or control for additional two days. Then cells were collected by trypsinization, washed with Dulbecco's phosphate buffer saline and lysed by suspension in lysis buffer. The suspension was kept on ice for 30 min to achieve complete lysis or the suspension can be sonicated to achieve complete lysis. After centrifugation, supernatant were collected and total protein was quantified, and western blot samples were prepared with the SDS sample buffer Proteins were transferred to a nitrocellulose membrane for 1.5 hr at 350 mA at cold room. Membranes were blocked with 5% nonfat milk dissolved in PBST at room temperature for 1 hour and incubated overnight with primary antibody diluted in 5% nonfat milk dissolved in PBST at 4° C. Membranes were then washed with PBST for 10 min/each three times, and incubated with HRP-conjugated secondary antibody for 1 hour at room temperature, and washed with PBST for 10 min/each three times, and then detected by ECL reaction and X-ray film exposure. BAF155 and PABP1 were used as biomarkers to determine the EC50 values.

For test [2], the system named is HCC1954 breast cancer cells. In words: Transwell invasion assay. As for the experimental part:
In another example, a compound's effect on cancer cell migration and invasion were evaluated in a transwell invasion assay. In one such example, addition of compound 6 in a concentration of 5 μM and 10 μM caused an approximately 50% and an approximately 75% reduction, respectively, of invasion of HCC1954 breast cancer cells in the assay.

Test [3] deals with MDA-MB-231 cells (BAF155 and PABP1 biomarkers). As to the kind of experiment: EC50 assay: western blot of BAF155 and PABP1 biomarkers in MDA-MB-231 cells. As to conditions: Homo sapiens, 48 h, two days treatment. As for the experimental part: as §1
(A western blot detects proteins with antibodies after separation by electrophoresis.)

With `COc1ccc(CCNC(=O)[C@H](CC[C@H](CNCc2ccccc2)C[C@H]2O[C@@H](n3cnc4c(N)ncnc43)[C@@H](O)C2O)NC(=O)CC(C)(C)c2c(C)cc(C)cc2OC(C)=O)cc1` (stereo partly shown) [Example 3], the EC50 in test [1] was < 5 µM. Compound `CC(=O)Oc1cc(C)cc(C)c1C(C)(C)CC(=O)N[C@@H](CC[C@H](CNCc1ccccc1)C[C@H]1O[C@@H](n2cnc3c(N)ncnc32)[C@@H](O)C1O)C(=O)O` (stereo partly shown) [Example 2] registered an EC50 in test [1] of 10 µM. As for `COc1ccc(CCNC(=O)C(CC[C@H](CNCc2ccccc2)C[C@H]2O[C@@H](n3cnc4c(N)ncnc43)[C@@H](O)C2O)NC(=O)CC(C)(C)C2=C(C)C(=O)C(C)=C(C)C2=O)cc1` (stereo partly shown) [Example 6], the “reduction of invasion of HCC1954 breast cancer cells” value is recorded as “approximately 50%” in test [2] (concentration of 5 μM) and “approximately 75%” in test [2] (concentration of 10 μM). Further, the EC50 in test [3] is < 0.5 µM. `CC1=CC(=O)C(C(C)(C)CC(=O)N[C@@H](CC[C@H](CNCc2ccccc2)C[C@H]2O[C@@H](n3cnc4c(N)ncnc43)[C@@H](O)C2O)C(=O)O)=CC1=O` (stereo partly shown) [Example 4]: the EC50 in test [1] is < 10 µM. Still for that read-out and setting: then `COc1ccc(CCNC(=O)[C@@H](N)CC[C@H](CNCc2ccccc2)C[C@H]2O[C@@H](n3cnc4c(N)ncnc43)[C@@H](O)C2O)cc1` (stereo partly shown) [Example 1], with 15 µM.

One may read the EC50 as the concentration at which the effect is half-maximal. Lower therefore signals an effect from little substance.
